According to patent US10266526B2, “Substituted 1,2,3-triazoles as SMYD inhibitors for treating cancer” (EPIZYME, INC., priority 2014, dated 2019):

What follows are molecules tested against SMYD2 (Homo sapiens (Human), UniProt Q9NRG4) (assay: SMYD2 biochemical assay (SMYD2 enzyme assay on peptide substrate, 3H-SAM Flashplate)). Details: read-out: SMYD2 Biochem IC50; IC50 values are an average of n = 1 to n = 50.
SMYD2, sequence (Q9NRG4 whole entry): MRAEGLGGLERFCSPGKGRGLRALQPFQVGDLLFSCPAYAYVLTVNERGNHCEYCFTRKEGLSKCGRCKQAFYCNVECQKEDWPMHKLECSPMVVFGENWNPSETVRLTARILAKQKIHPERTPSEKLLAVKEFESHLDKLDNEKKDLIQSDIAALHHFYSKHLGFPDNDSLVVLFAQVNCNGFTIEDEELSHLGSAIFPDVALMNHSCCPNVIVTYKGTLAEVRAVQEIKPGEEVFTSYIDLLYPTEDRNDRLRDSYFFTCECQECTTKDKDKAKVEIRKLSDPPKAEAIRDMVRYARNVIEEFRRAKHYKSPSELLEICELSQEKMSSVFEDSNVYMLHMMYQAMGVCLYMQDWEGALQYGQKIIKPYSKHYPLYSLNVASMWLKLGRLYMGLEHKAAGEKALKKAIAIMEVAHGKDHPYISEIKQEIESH

| SMILES | IC50 [nM] |
| --- | --- |
| O=C(NC1CN(Cc2cnn(CC3CCCCC3)c2)C1)c1cn(C2CC2)nn1 [compound 948, N-(1-((1-(cyclohexylmethyl)-1H-pyrazol-4-yl)methyl)azetidin-3-yl)-1-cyclopropyl-1H-1,2,3-triazole-4-carboxamide] | 360 |
| O=C(NC1CN(Cc2cnn(CC3CCOCC3)c2)C1)c1cn(C2CC2)nn1 [compound 949, 1-cyclopropyl-N-(1-((1-((tetrahydro-2H-pyran-4-yl)methyl)-1H-pyrazol-4-yl)methyl)azetidin-3-yl)-1H-1,2,3-triazole-4-carboxamide] | 2400 |
| O=C(NC1CN(Cc2cnn(CC3CCOC3)c2)C1)c1cn(C2CC2)nn1 (stereo not shown) [compound 950, 1-cyclopropyl-N-(1-((1-((tetrahydrofuran-3-yl)methyl)-1H-pyrazol-4-yl)methyl)azetidin-3-yl)-1H-1,2,3-triazole-4-carboxamide] | 2000 |
| O=C(NC1CN(Cc2cnn(Cc3ccc(F)cc3)c2)C1)c1cn(C2CC2)nn1 [compound 951, 1-cyclopropyl-N-(1-((1-(4-fluorobenzyl)-1H-pyrazol-4-yl)methyl)azetidin-3-yl)-1H-1,2,3-triazole-4-carboxamide] | 22 |
| CC(c1ccc2c(cnn2C)c1)N1CC(NC(=O)c2cn(C3CC3)nn2)C1 (stereo not shown) [compound 952, 1-cyclopropyl-N-(1-(1-(1-methyl-1H-indazol-5-yl)ethyl)azetidin-3-yl)-1H-1,2,3-triazole-4-carboxamide] | 1630 |
| O=C(NC1CN(Cc2ccc(Cn3cccn3)cc2)C1)c1cn(C2CC2)nn1 [compound 953, N-(1-(4-((1H-pyrazol-1-yl)methyl)benzyl)azetidin-3-yl)-1-cyclopropyl-1H-1,2,3-triazole-4-carboxamide] | 5600 |
| O=C(NC1CN(Cc2ccc(Cn3cccn3)cc2)C1)c1cc(C2CC2)cnn1 [compound 954, N-(1-(4-((1H-pyrazol-1-yl)methyl)benzyl)azetidin-3-yl)-5-cyclopropylpyridazine-3-carboxamide] | 2400 |
| O=C(NC1CN(Cc2cnn(Cc3ccccc3)c2)C1)c1cc(C2CC2)on1 [compound 955, N-(1-((1-benzyl-1H-pyrazol-4-yl)methyl)azetidin-3-yl)-5-cyclopropylisoxazole-3-carboxamide] | 73 |
| CC(c1cccc(OCC(C)(C)O)c1Cl)N1CC(NC(=O)c2cn(C3CC3)nn2)C1 (stereo not shown) [compound 956, N-(1-(1-(2-chloro-3-(2-hydroxy-2-methylpropoxy)phenyl)ethyl)azetidin-3-yl)-1-cyclopropyl-1H-1,2,3-triazole-4-carboxamide] | 2600 |
| COc1ccc(COc2ccc(C(C)N3CC(NC(=O)c4cn(C5CC5)nn4)C3)cc2)cc1 (stereo not shown) [compound 957, 1-cyclopropyl-N-(1-(1-(4-((4-methoxybenzyl)oxy)phenyl)ethyl)azetidin-3-yl)-1H-1,2,3-triazole-4-carboxamide] | 160 |
| COc1ccc(C(C)N2CC(NC(=O)c3cc(C4CC4)cnn3)C2)cc1 (stereo not shown) [compound 958, 5-cyclopropyl-N-(1-(1-(4-methoxyphenyl)ethyl)azetidin-3-yl)pyridazine-3-carboxamide] | 600 |
| CC(c1ccc(OCCN(C)C)cc1)N1CC(NC(=O)c2cn(C3CC3)nn2)C1 (stereo not shown) [compound 959, 1-cyclopropyl-N-(1-(1-(4-(2-(dimethylamino)ethoxy)phenyl)ethyl)azetidin-3-yl)-1H-1,2,3-triazole-4-carboxamide] | 2000 |
| CC(c1ccc(OCCc2ccccc2)cc1)N1CC(NC(=O)c2cn(C3CC3)nn2)C1 (stereo not shown) [compound 960, 1-cyclopropyl-N-(1-(1-(4-phenethoxyphenyl)ethyl)azetidin-3-yl)-1H-1,2,3-triazole-4-carboxamide] | 780 |
| CC(C)N1CC(NC(=O)c2cc(C3CC3)ccn2)C1 [compound 961, 4-cyclopropyl-N-(1-isopropylazetidin-3-yl)picolinamide] | 1300 |
| CC(c1cc(Cl)ccc1Cl)N1CC(NC(=O)c2cc(C3CC3)ccn2)C1 (stereo not shown) [compound 962, 4-cyclopropyl-N-(1-(1-(2,5-dichlorophenyl)ethyl)azetidin-3-yl)picolinamide] | 480 |
| CNC(=O)c1ccc(COc2ccc(C(C)N3CC(NC(=O)c4cn(C5CC5)nn4)C3)cc2)cc1 (stereo not shown) [compound 963, 1-cyclopropyl-N-(1-(1-(4-((4-(methylcarbamoyl)benzyl)oxy)phenyl)ethyl)azetidin-3-yl)-1H-1,2,3-triazole-4-carboxamide] | 970 |
| CC(c1cccc(OCCO)c1Cl)N1CC(NC(=O)c2cc(C3CC3)ccn2)C1 (stereo not shown) [compound 964, N-(1-(1-(2-chloro-3-(2-hydroxyemoxy)phenyl)ethyl)azetidin-3-yl)-4-cyclopropylpicolinamide] | 10500 |
| COc1cccc(C(C)N2CC(NC(=O)c3cc(C4CC4)cnn3)C2)c1Cl (stereo not shown) [compound 965, N-(1-(1-(2-chloro-3-memoxyphenyl)ethyl)azetidin-3-yl)-5-cyclopropylpyridazine-3-carboxamide] | 72 |
| O=C(NC1CN(Cc2cnn(Cc3ccccc3)c2)C1)c1cc(C2CC2)ccn1 [compound 966, N-(1-((1-benzyl-1H-pyrazol-4-yl)methyl)azetidin-3-yl)-4-cyclopropylpicolinamide] | 13 |

| SMILES | IC50 [nM] |
| --- | --- |
| O=C(NC1CN(Cc2ccc(OCc3ccccc3)cc2)C1)c1cc(C2CC2)ccn1 [compound 967, N-(1-(4-(benzyloxy)benzyl)azetidin-3-yl)-4-cyclopropylpicolinamide] | 150 |
| CC(c1ccc(OCC(F)(F)F)cc1)N1CC(NC(=O)c2cn(C3CC3)nn2)C1 (stereo not shown) [compound 968, 1-cyclopropyl-N-(1-(1-(4-(2,2,2-trifluoroethoxy)phenyl)ethyl)azetidin-3-yl)-1H-1,2,3-triazole-4-carboxamide] | 1700 |
| CC(c1cc(Cl)ccc1OC(F)F)N1CC(NC(=O)c2cn(C3CC3)nn2)C1 (stereo not shown) [compound 970, N-(1-(1-(5-chloro-2-(difluoromethoxy)phenyl)ethyl)azetidin-3-yl)-1-cyclopropyl-1H-1,2,3-triazole-4-carboxamide] | 5100 |
| Cc1ccc(COc2ccc(C(C)N3CC(NC(=O)c4cn(C5CC5)nn4)C3)cc2)cc1 (stereo not shown) [compound 971, 1-cyclopropyl-N-(1-(1-(4-((4-methylbenzyl)oxy)phenyl)ethyl)azetidin-3-yl)-1H-1,2,3-triazole-4-carboxamide] | 88 |
| O=C(NC1CN(Cc2ccc(OCc3cccnc3)cc2)C1)c1cn(C2CC2)nn1 [compound 972, 1-cyclopropyl-N-(1-(4-(pyridin-3-ylmemoxy)benzyl)azetidin-3-yl)-1H-1,2,3-triazole-4-carboxamide] | 1300 |
| CC(c1cccc(OCC(O)CO)c1Cl)N1CC(NC(=O)c2cn(C3CC3)nn2)C1 (stereo not shown) [compound 973, N-(1-(1-(2-chloro-3-(2,3-dihydroxypropoxy)phenyl)ethyl)azetidin-3-yl)-1-cyclopropyl-1H-1,2,3-triazole-4-carboxamide] | > 50000 |
| CC(c1ccc(COc2ccccc2)cc1)N1CC(NC(=O)c2cn(C3CC3)nn2)C1 (stereo not shown) [compound 974, 1-cyclopropyl-N-(1-(1-(4-(phenoxymethyl)phenyl)ethyl)azetidin-3-yl)-1H-1,2,3-triazole-4-carboxamide] | 870 |
| CNCCOc1cccc(C(C)N2CC(NC(=O)c3cn(C4CC4)nn3)C2)c1Cl (stereo not shown) [compound 975, N-(1-(1-(2-chloro-3-(2-(methylamino)ethoxy)phenyl)ethyl)azetidin-3-yl)-1-cyclopropyl-1H-1,2,3-triazole-4-carboxamide] | 5400 |
| CC(c1cc(Cl)ccc1C(F)(F)F)N1CC(NC(=O)c2cn(C3CC3)nn2)C1 (stereo not shown) [compound 976, N-(1-(1-(5-chloro-2-(trifluoromethyl)phenyl)ethyl)azetidin-3-yl)-1-cyclopropyl-1H-1,2,3-triazole-4-carboxamide] | 1800 |
| CC(c1cccc(OCCN(C)C)c1Cl)N1CC(NC(=O)c2cn(C3CC3)nn2)C1 (stereo not shown) [compound 977, N-(1-(1-(2-chloro-3-(2-(dimethylamino)ethoxy)phenyl)ethyl)azetidin-3-yl)-1-cyclopropyl-1H-1,2,3-triazole-4-carboxamide] | 7500 |
| CC(O)COc1cccc(C(C)N2CC(NC(=O)c3cn(C4CC4)nn3)C2)c1Cl (stereo not shown) [compound 978, N-(1-(1-(2-chloro-3-(2-hydroxypropoxy)phenyl)ethyl)azetidin-3-yl)-1-cyclopropyl-1H-1,2,3-triazole-4-carboxamide] | 1100 |
| CC(NC(=O)c1cn(C2CC2)nn1)C1CCCCN1C (stereo not shown) [compound 979, 1-cyclopropyl-N-(1-(1-methylpiperidin-2-yl)ethyl)-1H-1,2,3-triazole-4-carboxamide] | > 50000 |
| CC(C)(c1ccc(OCc2ccccc2)cc1)N1CC(NC(=O)c2cn(C3CC3)nn2)C1 [compound 980, N-(1-(2-(4-(benzyloxy)phenyl)propan-2-yl)azetidin-3-yl)-1-cyclopropyl-1H-1,2,3-triazole-4-carboxamide] | 990 |
| CC(NC(=O)c1cc(C2CC2)cnn1)C1CCCCN1C (stereo not shown) [compound 981, 5-cyclopropyl-N-(1-(1-methylpiperidin-2-yl)ethyl)pyridazine-3-carboxamide] | > 50000 |
| COc1cccc(Cn2cc(CN3CC(NC(=O)c4cn(C5CC5)nn4)C3)cn2)c1 [compound 982, 1-cyclopropyl-N-(1-((1-(3-methoxybenzyl)-1H-pyrazol-4-yl)methyl)azetidin-3-yl)-1H-1,2,3-triazole-4-carboxamide] | 169 |
| O=C(NC1CN(Cc2ccc(C(O)Cc3ccccc3)cc2)C1)c1cn(C2CC2)nn1 (stereo not shown) [compound 983, 1-cyclopropyl-N-(1-(4-(1-hydroxy-2-phenylethyl)benzyl)azetidin-3-yl)-1H-1,2,3-triazole-4-carboxamide] | 1390 |
| O=C(NC1CN(Cc2cnn(Cc3ccc(Cl)cc3)c2)C1)c1cn(C2CC2)nn1 [compound 985, N-(1-((1-(4-Chlorobenzyl)-1H-pyrazol-4-yl)methyl)azetidin-3-yl)-1-cyclopropyl-1H-1,2,3-triazole-4-carboxamide] | 3.9 |
| O=C(NC1CN(Cc2cnn(Cc3ccccc3)c2)C1)c1ncc(C2CC2)[nH]1 [compound 986, N-(1-((1-benzyl-1H-pyrazol-4-yl)methyl)azetidin-3-yl)-5-cyclopropyl-1H-imidazole-2-carboxamide] | > 50000 |
